Measurements as given in patent US20090054490A1, “METHODS FOR THE TREATMENT OF GERD WITH MGLUR5 ANTAGONISTS” (priority 2007, published 2009).
pKi: −log10 of the molar value.

These compounds were tested against T1, human mGlu5a receptor (Homo sapiens, UniProt P41594) (assay: [3H]MPEP competition binding on membranes of EBNA cells transfected with human mGlu5a receptor). Details: [3H]MPEP 2 nM, 1 h at 4° C., read-out: Ki (mGluR5).
T1 construct: expressed in transfected cells; host or cells: EBNA cells (transient transfection); cell membrane homogenates
Method: For binding experiments, cDNA encoding human mGlu5a receptor was transiently transfected into EBNA cells using a procedure described by Schlaeger and Christensen [Cytotechnology 15:1-13 (1998)]. Cell membrane homogenates were stored at −80° C. until the day of assay where upon they were thawed and resuspended and polytronised in 15 mM Tris-HCl, 120 mM NaCl, 100 mM KCl, 25 mM CaCl2, 25 mM MgCl2 binding buffer at pH 7.4 to a final assay concentration of 20 […].
Saturation isotherms were determined by addition of twelve [^3H]MPEP concentrations (0.04-100 nM) to these membranes (in a total volume of 200 μl) for 1 h at 4° C. […] Incubations were performed for 1 h at 4° C.
At the end of the incubation, membranes were filtered onto unifilter (96-well white microplate with bonded GF/C filter preincubated 1 h in 0.1% PEI in wash buffer, Packard BioScience, Meriden, Conn.) with a Filtermate 96 harvester (Packard BioScience) and washed 3 times with cold 50 mM Tris-HCl, pH 7.4 buffer. Nonspecific binding was measured in the presence of […]. The radioactivity on the filter was counted (3 min) on a Packard Top-count microplate scintillation counter with quenching correction after addition of 45 μl of microscint 40 (Canberra Packard S.A., Zutrich, Switzerland) and shaking for 20 min.
The inhibition (antagonists) curves were fitted with a four parameter logistic equation giving IC50, and Hill coefficient using an iterative non linear curve fitting software (Xcel fit).
The Ki value is defined by the following formula: […]
L is the concentration of radioligand used in the binding experiment and the Kd value of the radioligand is empirically determined for each batch of membranes prepared.

T1 sequence (P41594 21-1180 isoform P41594-2 limits assumed): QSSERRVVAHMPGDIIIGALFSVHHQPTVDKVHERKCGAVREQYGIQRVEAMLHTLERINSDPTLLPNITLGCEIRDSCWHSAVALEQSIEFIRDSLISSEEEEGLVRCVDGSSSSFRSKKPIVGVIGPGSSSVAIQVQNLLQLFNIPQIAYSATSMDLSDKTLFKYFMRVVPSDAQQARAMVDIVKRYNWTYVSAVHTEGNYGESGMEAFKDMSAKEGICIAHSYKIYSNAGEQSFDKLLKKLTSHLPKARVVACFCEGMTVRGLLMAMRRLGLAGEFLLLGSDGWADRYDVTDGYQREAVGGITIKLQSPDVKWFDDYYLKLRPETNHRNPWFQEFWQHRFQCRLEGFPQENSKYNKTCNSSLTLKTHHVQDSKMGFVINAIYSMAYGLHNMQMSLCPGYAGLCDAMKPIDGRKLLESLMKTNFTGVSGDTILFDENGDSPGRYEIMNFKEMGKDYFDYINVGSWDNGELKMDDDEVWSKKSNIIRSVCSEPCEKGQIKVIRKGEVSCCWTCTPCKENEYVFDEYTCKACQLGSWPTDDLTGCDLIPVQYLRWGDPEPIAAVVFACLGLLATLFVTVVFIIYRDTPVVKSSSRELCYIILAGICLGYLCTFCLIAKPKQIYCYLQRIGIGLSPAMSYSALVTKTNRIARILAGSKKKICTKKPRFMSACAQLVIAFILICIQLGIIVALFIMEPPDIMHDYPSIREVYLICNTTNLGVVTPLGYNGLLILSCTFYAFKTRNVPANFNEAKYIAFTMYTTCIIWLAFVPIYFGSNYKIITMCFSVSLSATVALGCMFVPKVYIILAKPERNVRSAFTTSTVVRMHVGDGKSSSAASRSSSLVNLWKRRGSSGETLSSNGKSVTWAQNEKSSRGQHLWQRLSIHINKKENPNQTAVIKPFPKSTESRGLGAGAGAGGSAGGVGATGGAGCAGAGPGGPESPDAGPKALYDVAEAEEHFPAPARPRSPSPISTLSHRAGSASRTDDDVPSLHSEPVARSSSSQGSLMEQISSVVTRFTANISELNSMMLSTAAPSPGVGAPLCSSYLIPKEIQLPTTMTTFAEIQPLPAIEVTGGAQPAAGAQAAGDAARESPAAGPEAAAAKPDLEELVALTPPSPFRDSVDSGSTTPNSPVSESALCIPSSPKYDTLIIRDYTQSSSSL

Row | pKi | SMILES
1 | 7.30 | Cc1cc(F)ccc1-n1c(C)nc(C#Cc2ccnc(Cl)c2)c1C [compound 5, 2-Chloro-4-[1-(4-fluoro-2-methyl-phenyl)-2,5-dimethyl-1H-imidazol-4-ylethynyl]-pyridine]
2 | 7.46 | Cc1cc(-n2c(C)nc(C#Cc3ccnc(Cl)c3)c2C)ccc1F [compound 6, 2-Chloro-4-[1-(4-fluoro-3-methyl-phenyl)-2,5-dimethyl-1H-imidazol-4-ylethynyl]-pyridine]
3 | 7.68 | Cc1ccc(-n2c(C)nc(C#Cc3ccnc(Cl)c3)c2C)cc1 [compound 7, 2-Chloro-4-(2,5-dimethyl-1-p-tolyl-1H-imidazol-4-ylethynyl)-pyridine]
4 | 8.00 | Cc1ccc(-n2c(C)nc(C#Cc3ccnc(Cl)c3)c2C)cc1Cl [compound 8, 2-Chloro-4-[1-(3-chloro-4-methyl-phenyl)-2,5-dimethyl-1H-imidazol-4-ylethynyl]-pyridine]
5 | 7.52 | COc1ccc(-n2c(C)nc(C#Cc3ccnc(Cl)c3)c2C)cc1 [compound 10, 2-Chloro-4-[1-(4-methoxy-phenyl)-2,5-dimethyl-1H-imidazol-4-ylethynyl]-pyridine]
6 | 7.85 | Cc1nc(C#Cc2ccnc(Cl)c2)c(C)n1-c1cccc(OC(F)(F)F)c1 [compound 12, 2-Chloro-4-[2,5-dimethyl-1-(3-trifluoromethoxy-phenyl)-1H-imidazol-4-ylethynyl]-pyridine]
7 | 7.36 | Cc1nc(C#Cc2ccnc(Cl)c2)c(C)n1-c1ccc(C(F)(F)F)cc1 [compound 13, 2-Chloro-4-[2,5-dimethyl-1-(4-trifluoromethyl-phenyl)-1H-imidazol-4-ylethynyl]-pyridine]
8 | 8.30 | Cc1cc(-n2c(C)nc(C#Cc3ccnc(Cl)c3)c2C)ccc1OC(F)(F)F [compound 14, 2-Chloro-4-[2,5-dimethyl-1-(3-methyl-4-trifluoromethoxy-phenyl)-1H-imidazol-4-ylethynyl]-pyridine]
9 | 7.15 | Cc1ccc(-n2c(C)nc(C#Cc3ccnc(Cl)c3)c2C)nc1 [compound 15, 2-[4-(2-Chloro-pyridin-4-ylethynyl)-2,5-dimethyl-1H-imidazol-1-yl]-5-methyl-pyridine]
10 | 7.07 | Cc1nc(C#Cc2ccnc(Cl)c2)c(C)n1-c1ccc(Cl)nc1 [compound 16, 2-Chloro-5-[4-(2-Chloro-pyridin-4-ylethynyl)-2,5-dimethyl-1H-imidazol-1-yl]-pyridine]
11 | 7.10 | Cc1cc(C(F)(F)F)cc(-n2c(C)nc(C#Cc3ccnc(Cl)c3)c2C)n1 [compound 17, 2-[4-(2-Chloro-pyridin-4-ylethynyl)-2,5-dimethyl-imidazol-1-yl]-6-methyl-4-trifluoromethyl-pyridine]
12 | 6.97 | Cc1nc(C#Cc2ccnc(Cl)c2)c(C)n1-c1cnccn1 [compound 18, 2-[4-(2-Chloro-pyridin-4-ylethynyl)-2,5-dimethyl-imidazol-1-yl]-pyrazine]
13 | 7.70 | Cc1nc(C#Cc2ccnc(Cl)c2)c(C)n1-c1ccc(Cl)cc1 [compound 19, 2-Chloro-4-[1-(4-chloro-phenyl)-2,5-dimethyl-1H-imidazol-4-ylethynyl]-pyridine]
14 | 7.55 | Cc1nc(C#Cc2ccnc(Cl)c2)c(C)n1-c1cccc(Cl)c1F [compound 20, 2-Chloro-4-[1-(3-chloro-2-fluoro-phenyl)-2,5-dimethyl-1H-imidazol-4-ylethynyl]-pyridine]
15 | 7.26 | Cc1nc(C#Cc2ccnc(Cl)c2)c(C)n1-c1cccc(C(F)(F)F)c1 [compound 21, 2-Chloro-4-[2,5-dimethyl-1-(3-trifluoromethyl-phenyl)-1H-imidazol-4-ylethynyl]-pyridine]
16 | 7.51 | Cc1nc(C#Cc2ccnc(Cl)c2)c(C)n1-c1ccc(F)c(Cl)c1 [compound 22, 2-Chloro-4-[1-(3-chloro-4-fluoro-phenyl)-2,5-dimethyl-1H-imidazol-4-ylethynyl]-pyridine]
17 | 7.03 | Cc1cccc(-n2c(C)nc(C#Cc3ccnc(Cl)c3)c2C)n1 [compound 23, 2-[4-(2-Chloro-pyridin-4-ylethynyl)-2,5-dimethyl-1H-imidazol-1-yl]-6-methyl-pyridine]
18 | 7.59 | Cc1nc(C#Cc2ccnc(Cl)c2)c(C)n1-c1cccc(C(F)(F)F)n1 [compound 24, 2-[4-(2-Chloro-pyridin-4-ylethynyl)-2,5-dimethyl-1H-imidazol-1-yl]-6-(trifluoromethyl)-pyridine]
19 | 8.23 | Cc1c(C#Cc2ccnc(Cl)c2)nn(C)c1-c1ccc(F)cc1 [compound 26, 2-Chloro-4-[5-(4-fluoro-phenyl)-1,4-dimethyl-1H-pyrazol-3-ylethynyl]-pyridine]
20 | 7.37 | Cc1nc(C#Cc2ccnc(Cl)c2)c(C(F)F)n1-c1ccc(F)cc1 [compound 27, 2-Chloro-4-[5-difluoromethyl-1-(4-fluoro-phenyl)-2-methyl-1H-imidazol-4-ylethynyl]-pyridine]
21 | 6.68 | Cc1nc(C#Cc2ccnc(Cl)c2)c(CO)n1-c1ccc(F)cc1 [compound 28, [5-(2-Chloro-pyridin-4-ylethynyl)-3-(4-fluoro-phenyl)-2-methyl-3H-imidazol-4-yl]-methanol]
